Measurements from US10633419B2, “Immunomodulators” (BRISTOL-MYERS SQUIBB COMPANY, priority 2014, dated 2020).
Starred links: 1 amine or outer side, 2 acyl side, 3 side chain; linkers in the order of their positions; H or OH if unused. Positions of bridges follow the written chain, without caps; N, C: chain ends. Non-standard residues stand in square brackets, D forms with d. Residues, ends and D or L forms follow the SMILES beside them. *: point of attachment. X6 = O=C(O)CCCCCCCCCCCCCCCCC(=O)N[C@@H](CCC(=O)NCCCOCCOCCOCCCN*)C(=O)O; X13 = O=C(O)CCCCCCCCCCCCCCC(=O)N[C@@H](CCC(=O)NCCCOCCOCCOCCCN*)C(=O)O; X18 = O=C(O)CCCCCCCCCCCCCCC(=O)N[C@@H](CC(=O)NCCCOCCOCCOCCCN*)C(=O)O; Trp(1-CH2COOH) = N[C@@H](Cc1cn(CC(=O)O)c2ccccc12)C(=O)O; X3 = NC(=O)[C@H](CC(=O)O)NC(=O)CCC(=O)NCCCOCCOCCOCCCN*; d(cisHyp) = O=C(O)[C@H]1C[C@@H](O)CN1; NH(CH2)12COOH = O=C(O)CCCCCCCCCCCCN*; X19 = O=C(C1C[C@H](O)CN1[*:1])[*:2]; PEG6 = NCCOCCOCCOCCOCCOCCOCCC(=O)O; Hyp = O=C(O)[C@@H]1C[C@@H](O)CN1; dHyp = O=C(O)[C@H]1C[C@H](O)CN1; NMeNle = CCCC[C@H](NC)C(=O)O; dDab = NCC[C@@H](N)C(=O)O; NMeA = CN[C@@H](C)C(=O)O; Aun = NCCCCCCCCCCC(=O)O; Dab = NCC[C@H](N)C(=O)O; Dap = NC[C@H](N)C(=O)O

target: T1, PD-L1 (Homo sapiens, UniProt Q9NZQ7); assay: PD-1/PD-L1 Homogenous Time-Resolved Fluorescence (HTRF) binding assay (PD-1-Ig/PD-L1-His); settings: inhibition of PD-1-Ig binding to PD-L1-TVMV-His; value given as number; read-out: HTRF IC50
T1 construct: hPDL1(19-239)-TVMV-His; made in house; host or cells: HEK293T
In short: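 HTRF competition in dPBS with 0.1% BSA and 0.05% Tween-20: 20 nM PD-1-Ig added after 15 min compound pre-incubation with 10 nM PD-L1-His, then another 15 min. Signal (665/620 nm) after 30 min with APC anti-His (20 nM) and Eu anti-Ig (1 nM).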

T1 sequence (Q9NZQ7 with tags, fused parts or gaps): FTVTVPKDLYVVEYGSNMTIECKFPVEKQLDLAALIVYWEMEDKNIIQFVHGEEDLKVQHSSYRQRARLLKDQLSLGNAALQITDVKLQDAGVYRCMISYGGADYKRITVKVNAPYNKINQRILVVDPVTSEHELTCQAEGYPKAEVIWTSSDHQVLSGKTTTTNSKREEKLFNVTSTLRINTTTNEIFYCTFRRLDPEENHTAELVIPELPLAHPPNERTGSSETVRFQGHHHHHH

Row | IC50 | SMILES
1 | 0.0033 µM | CCCC[C@H]1C(=O)N(C)[C@@H](CCCC)C(=O)N[C@@H](CC(C)C)C(=O)N[C@H](C(=O)NCC(=O)N[C@@H](Cc2cn(CC[C@H](NC(=O)CCCCCCCCCCCCCCCCC(=O)O)C(=O)O)nn2)C(=O)O)CSCC(=O)N[C@@H](Cc2ccc(O)cc2)C(=O)N2CCCC[C@H]2C(=O)N[C@@H](CC(N)=O)C(=O)N2CCC[C@H]2C(=O)N[C@@H](CN)C(=O)N[C@@H](CC(C)C)C(=O)N2C[C@H](O)C[C@H]2C(=O)N[C@@H](Cc2c[nH]c3ccccc23)C(=O)N[C@@H](CCN)C(=O)N[C@@H](Cc2cn(CC(=O)O)c3ccccc23)C(=O)N1C [Example 13132]

same assay, conditions: inhibition of PD-1-Ig binding to PD-L1-TVMV-His; value given as range class; read-out: HTRF IC50

Row | IC50 | SMILES
2 | 0.0003 to 0.0099 µM | CCCC[C@H]1C(=O)N(C)[C@@H](CCCC)C(=O)N[C@@H](CC(C)C)C(=O)N[C@H](C(=O)NCC(=O)N[C@@H](CC(=O)O)C(=O)N[C@@H](CCC(=O)NCCCOCCOCCOCCCNC(=O)CC[C@H](NC(=O)CCCCCCCCCCCCCCC(=O)O)C(=O)O)C(=O)O)CSCC(=O)N[C@@H](Cc2ccc(O)cc2)C(=O)N(C)[C@@H](C)C(=O)N[C@@H](CC(N)=O)C(=O)N2CCC[C@H]2C(=O)N[C@@H](CN)C(=O)N[C@@H](CC(C)C)C(=O)N2C[C@H](O)C[C@H]2C(=O)N[C@@H](Cc2c[nH]c3ccccc23)C(=O)N[C@@H](CCN)C(=O)N[C@@H](Cc2cn(CC(=O)O)c3ccccc23)C(=O)N1C [Example 11170] ({CH2CO}-Y[NMeA]NP[Dap]L[Hyp]W[Dab][Trp(1-CH2COOH)][NMeNle][NMeNle]LCGDE(X13)-OH; thioether N-14)
3 | 0.0003 to 0.0099 µM | CCCC[C@H]1C(=O)N(C)[C@@H](CCCC)C(=O)N[C@@H](CC(C)C)C(=O)N[C@H](C(=O)NCC(=O)N[C@@H](CC(=O)O)C(=O)N[C@@H](CC(=O)NCCCOCCOCCOCCCNC(=O)CC[C@H](NC(=O)CCCCCCCCCCCCCCCCC(=O)O)C(=O)O)C(=O)O)CSCC(=O)N[C@@H](Cc2ccc(O)cc2)C(=O)N(C)[C@@H](C)C(=O)N[C@@H](CC(N)=O)C(=O)N2CCC[C@H]2C(=O)N[C@@H](CN)C(=O)N[C@@H](CC(C)C)C(=O)N2C[C@H](O)C[C@H]2C(=O)N[C@@H](Cc2c[nH]c3ccccc23)C(=O)N[C@@H](CCN)C(=O)N[C@@H](Cc2cn(CC(=O)O)c3ccccc23)C(=O)N1C [Example 11225] ({CH2CO}-Y[NMeA]NP[Dap]L[Hyp]W[Dab][Trp(1-CH2COOH)][NMeNle][NMeNle]LCGDD(X6)-OH; thioether N-14)
4 | 0.01 to 0.099 µM | CCCC[C@H]1C(=O)N(C)[C@@H](CCCC)C(=O)N[C@@H](CC(C)C)C(=O)N[C@H](C(=O)NCCCOCCOCCOCCCNC(=O)CCC(=O)N[C@@H](CC(=O)O)C(N)=O)CSCC(=O)N[C@@H](Cc2ccc(O)cc2)C(=O)N(C)[C@@H](C)C(=O)N[C@@H](CC(N)=O)C(=O)N2CCC[C@H]2C(=O)N[C@@H](Cc2cnc[nH]2)C(=O)N[C@@H](CCC(=O)O)C(=O)N2C[C@H](O)C[C@H]2C(=O)N[C@@H](Cc2c[nH]c3ccccc23)C(=O)N[C@@H](CCN)C(=O)N[C@@H](Cc2cn(CC(=O)O)c3ccccc23)C(=O)N1C [Example 11067] ({CH2CO}-Y[NMeA]NPHE[Hyp]W[Dab][Trp(1-CH2COOH)][NMeNle][NMeNle]LC-X3; thioether N-14)
5 | 0.01 to 0.099 µM | CCCC[C@H]1C(=O)N(C)[C@@H](CCCC)C(=O)N[C@@H](CC(C)C)C(=O)N[C@@H](C(=O)NCC(=O)N[C@@H](CC(=O)O)C(=O)N[C@@H](CCC(=O)NCCCOCCOCCOCCCNC(=O)C[C@H](NC(=O)CCCCCCCCCCCCCCC(=O)O)C(=O)O)C(=O)O)CSCC(=O)N[C@@H](Cc2ccc(O)cc2)C(=O)N(C)[C@@H](C)C(=O)N[C@@H](CC(N)=O)C(=O)N2CCC[C@@H]2C(=O)N[C@@H](CN)C(=O)N[C@@H](CC(C)C)C(=O)N2C[C@@H](O)C[C@@H]2C(=O)N[C@@H](Cc2c[nH]c3ccccc23)C(=O)N[C@H](CCN)C(=O)N[C@@H](Cc2cn(CC(=O)O)c3ccccc23)C(=O)N1C [Example 11241] ({CH2CO}-Y[NMeA]N[dP][Dap]L[dHyp]W[dDab][Trp(1-CH2COOH)][NMeNle][NMeNle]L[dC]GDE(X18)-OH; thioether N-14)
6 | 0.1 to 1.6 µM | CCCC[C@H]1C(=O)N(C)[C@@H](CCCC)C(=O)N[C@@H](CC(C)C)C(=O)N[C@@H](C(=O)N[C@@H](CC(=O)O)C(=O)N[C@@H](CC(=O)NCCCOCCOCCOCCCNC(=O)C[C@H](NC(=O)CCCCCCCCCCCCCCC(=O)O)C(=O)O)C(=O)O)CSCC(=O)N[C@@H](Cc2ccc(O)cc2)C(=O)N(C)[C@@H](C)C(=O)N[C@@H](CC(N)=O)C(=O)N2CCC[C@@H]2C(=O)N[C@@H](CN)C(=O)N[C@@H](CC(C)C)C(=O)N2C[C@@H](O)CC2C(=O)N[C@@H](Cc2c[nH]c3ccccc23)C(=O)N[C@@H](CCN)C(=O)N[C@@H](Cc2cn(CC(=O)O)c3ccccc23)C(=O)N1C (stereo partly drawn) [Example 11244] ({CH2CO}-Y[NMeA]N[dP][Dap]L[X19]W[Dab][Trp(1-CH2COOH)][NMeNle][NMeNle]L[dC]DD(X18)-OH; thioether N-14)
7 | 0.01 to 0.099 µM | CCCC[C@H]1C(=O)N(C)[C@@H](CCCC)C(=O)N[C@@H](CC(C)C)C(=O)N[C@H](C(=O)NCC(=O)NCC(=O)NCC(=O)NCCCCCCCCCCC(=O)O)CSCC(=O)N[C@@H](Cc2ccc(O)cc2)C(=O)N(C)[C@@H](C)C(=O)N[C@@H](CC(N)=O)C(=O)N2CCC[C@H]2C(=O)N[C@@H](Cc2cnc[nH]2)C(=O)N[C@@H](CCC(=O)O)C(=O)N2C[C@H](O)C[C@H]2C(=O)N[C@@H](Cc2c[nH]c3ccccc23)C(=O)N[C@@H](CCN)C(=O)N[C@@H](Cc2cn(CC(=O)O)c3ccccc23)C(=O)N1C [Example 11079] ({CH2CO}-Y[NMeA]NPHE[Hyp]W[Dab][Trp(1-CH2COOH)][NMeNle][NMeNle]LCGGG[Aun]-OH; thioether N-14)
8 | 0.01 to 0.099 µM | CCCC[C@H]1C(=O)N(C)[C@@H](CCCC)C(=O)N[C@@H](CC(C)C)C(=O)N[C@H](C(=O)NCCOCCOCCOCCOCCOCCOCCC(=O)O)CSCC(=O)N[C@@H](Cc2ccc(O)cc2)C(=O)N(C)[C@@H](C)C(=O)N[C@@H](CC(N)=O)C(=O)N2CCC[C@H]2C(=O)N[C@@H](CO)C(=O)N[C@@H](CCC(N)=O)C(=O)N2C[C@H](O)C[C@@H]2C(=O)N[C@@H](Cc2c[nH]c3ccccc23)C(=O)N[C@@H](CN)C(=O)N[C@@H](Cc2cn(CC(=O)O)c3ccccc23)C(=O)N1C [Example 11046] ({CH2CO}-Y[NMeA]NPSQ[d(cisHyp)]W[Dap][Trp(1-CH2COOH)][NMeNle][NMeNle]LC[PEG6]-OH; thioether N-14)
9 | 0.01 to 0.099 µM | CCCC[C@H]1C(=O)N(C)[C@@H](CCCC)C(=O)N[C@@H](CC(C)C)C(=O)N[C@H](C(=O)NCC(=O)NCC(=O)N[C@@H](CC(=O)O)C(=O)NCCCCCCCCCCCCC(=O)O)CSCC(=O)N[C@@H](Cc2ccc(O)cc2)C(=O)N(C)[C@@H](C)C(=O)N[C@@H](CC(N)=O)C(=O)N2CCC[C@H]2C(=O)N[C@@H](CN)C(=O)N[C@@H](CC(C)C)C(=O)N2C[C@H](O)C[C@H]2C(=O)N[C@@H](Cc2c[nH]c3ccccc23)C(=O)N[C@@H](CCN)C(=O)N[C@@H](Cc2cn(CC(=O)O)c3ccccc23)C(=O)N1C [Example 11221] ({CH2CO}-Y[NMeA]NP[Dap]L[Hyp]W[Dab][Trp(1-CH2COOH)][NMeNle][NMeNle]LCGGD-{NH(CH2)12COOH}; thioether N-14)
